From patent publication US20240285571A1, “METHODS OF TREATING BONE INFECTIONS” (MICROBION CORPORATION, priority 2020, published 2024)
≈ marks a conversion by molar mass, not a printed value. Where two headings read alike, the source gives them in different places.

What was measured:
S. aureus ATCC 29213 = conditions: per CLSI M100-S24 or provided by Microbion; cited from earlier work
M. abscessus (MABSC) = test: MIC against CF isolates (Example 7, Table 18); type: cell-based, Mycobacterium abscessus complex; conditions: Mycobacteroides abscessus
C. difficile = test: Agar dilution MIC, anaerobes (Example 5); type: cell-based, Clostridium difficile; conditions: Clostridioides difficile, read-out: MIC
E. faecium = test: Broth microdilution MIC (Example 5); type: cell-based; conditions: E. faecium MMX 485; VRE vanA
Procedure: (§1) Test and Comparator Agents: The test agents were stored at room temperature until assayed. […] The stock solutions were allowed to stand for at least 1 hr prior to use to auto-sterilize.
(§2) TestMedia: Test media were prepared and stored in accordance with guidelines from CLSI (4, 6, 7).
(§3) Broth Microdilution MC Testing (Aerobic Bacteria and Yeast): The broth microdilution assay method employed for the susceptibility testing of aerobic bacteria (excluding N. gonorrhoeae which was evaluated by agar dilution) and yeast essentially followed the procedures described by CLSI (3, 4, 7, 8) and employed automated liquid handlers to conduct serial dilutions and liquid transfers. […] These would become the ‘mother plates’ from which ‘daughter’ or test plates would be prepared. The drugs (300 μL at 40× the desired top concentration in the test plates) were dispensed into the appropriate well in Column 1 of the mother plates. The Biomek 2000 was used to make serial two-fold dilutions through Column 11 in the “mother plate”. The wells of Column 12 contained no drug and ultimately served as the organism growth control wells.
(§4) The daughter plates were prepared using the Biomek FX which transferred 5 μL of drug solution from each well of a mother plate to the corresponding well of the correct daughter plate in a single step.
(§5) A standardized inoculum of each organism was prepared per CLSI methods (3, 7). Isolated colonies of each test isolate were picked from the primary plate and a suspension was prepared to equal a 0.5 McFarland turbidity standard. Standardized suspensions were then diluted […] (1:100 for yeast, 1:20 for bacteria). After dilution, the inoculum suspensions were then transferred to compartments of sterile reservoirs divided by length (Beckman Coulter), and the Biomek 2000 was used to inoculate all plates. Daughter plates were placed on the Biomek 2000 in reverse orientation so that plates were inoculated from low to high drug concentration.
(§6) The Biomek 2000 delivered 10 μL of standardized inoculum into each well of the appropriate daughter plate for an additional 1:20 dilution.
(§7) Plates were stacked 4 high, covered with a lid on the top plate, placed into plastic bags, and incubated at 35° C. for approximately 24-48 hr for all yeast isolates and 16-24 hr for aerobic bacteria. Plates were viewed from the bottom using a plate viewer. […] MIC endpoints for the test agents and control compounds were read per CLSI criteria (3, 7).

B. fragilis = test: Agar dilution MIC, anaerobes (Example 5); type: cell-based; conditions: Bacteroides fragilis, ATCC25285; B. fragilis MMX 123 (ATCC 25285); QC; read-out: MIC
S. pneumoniae [1] = conditions: S. pneumoniae MMX 6837 (ATCC 49619); cited from earlier work
F. magna = test: MIC of baseline clinical isolates (Example 8); type: cell-based; conditions: Finegoldia magna baseline isolates (N′ = 4), central laboratory, mITT
Procedure: (§8) Microbiology was assessed on Day 1 and at the time of any subsequent surgical procedure at the index site. Samples were collected from the infected bone site or involved tissue adjacent to any implant(s), swabs of the deep infection site, and the superficial tissue/wound closure/sinus tract site. […] Parallel sets of samples were analyzed by the local clinical site laboratory to guide patient antibiotic treatment.

[2] = tested on: Cutibacterium [Propionibacterium] acnes; test: MIC of baseline clinical isolates (Example 8); type: cell-based; conditions: Cutibacterium (Proprionibacterium) acnes baseline isolates (N′ = 3), central laboratory, mITT
Procedure: as §8

[3] = tested on: non-speciated Anaerococcus; test: MIC of baseline clinical isolates (Example 8); type: cell-based; conditions: Anaerococcus non-speciated baseline isolates (N′ = 1), central laboratory, mITT
Procedure: as §8

Peptoniphilus gorbachii = test: MIC of baseline clinical isolates (Example 8); type: cell-based; conditions: Peptoniphilus gorbachii baseline isolates (N′ = 1), central laboratory, mITT
Procedure: as §8

Clostridium sphenoides = test: MIC of baseline clinical isolates (Example 8); type: cell-based; conditions: Clostridium sphenoides baseline isolates (N′ = 1), central laboratory, mITT
Procedure: as §8

Actinomyces turicensis = test: MIC of baseline clinical isolates (Example 8); type: cell-based; conditions: Actinomyces turicensis baseline isolates (N′ = 1), central laboratory, mITT
Procedure: as §8

Anaerococcus murdochii = test: MIC of baseline clinical isolates (Example 8); type: cell-based; conditions: Anaerococcus murdochii baseline isolates (N′ = 1), central laboratory, mITT
Procedure: as §8

Streptococcus oralis = test: MIC of baseline clinical isolates (Example 8); type: cell-based; conditions: Streptococcus oralis baseline isolates (N′ = 1), central laboratory, mITT
Outline: (§9)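 Central-lab MIC testing per CLSI methods of MBN-101 (BisEDT) against aerobic and anaerobic isolates; specimens from infected bone, peri-implant tissue, deep swabs and superficial wound/sinus tract, collected Day 1 and at any later index-site surgery.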

[4] = tested on: Corynebacterium amycolatum; test: MIC of baseline clinical isolates (Example 8); type: cell-based; conditions: Corynebacterium amycolatum baseline isolates (N′ = 1), central laboratory, mITT
Outline: as §9

Corynebacterium jeikeium = test: MIC of baseline clinical isolates (Example 8); type: cell-based; conditions: Corynebacterium jeikeium baseline isolates (N′ = 2), central laboratory, mITT
Outline: as §9

[5] = tested on: Corynebacterium resistens; test: MIC of baseline clinical isolates (Example 8); type: cell-based; conditions: Corynebacterium resistens baseline isolates (N′ = 1), central laboratory, mITT
Outline: as §9

[6] = tested on: non-speciated Corynebacterium; test: MIC of baseline clinical isolates (Example 8); type: cell-based; conditions: Corynebacterium non-speciated baseline isolates (N′ = 2), central laboratory, mITT
Outline: as §9

Dermabacter hominis = test: MIC of baseline clinical isolates (Example 8); type: cell-based; conditions: Dermabacter hominis baseline isolates (N′ = 1), central laboratory, mITT
Outline: as §9

S. pyogenes = test: Broth microdilution MIC (Example 5); type: cell-based
Procedure: as §1, §2, §3, §4, §5, §6, §7

S. agalactiae = test: Broth microdilution MIC (Example 5); type: cell-based
Procedure: as §1, §2, §3, §4, §5, §6, §7

S. pneumoniae [7] = test: Broth microdilution MIC (Example 5); type: cell-based
Procedure: as §1, §2, §3, §4, §5, §6, §7

## CC[C@H]1OC(=O)[C@H](C)[C@@H](O[C@H]2C[C@@](C)(OC)[C@@H](O)[C@H](C)O2)[C@H](C)[C@@H](O[C@@H]2O[C@H](C)C[C@H](N(C)C)[C@H]2O)[C@](C)(OC)C[C@@H](C)C(=O)[C@H](C)[C@@H](O)[C@]1(C)O [Clarithromycin, reference compound]
S. aureus ATCC 29213
  MIC, acceptable range: 0.12 to 0.5 µg/mL
  MIC, expected results: 0.25 µg/mL (≈ 0.334 µM)
M. abscessus (MABSC); strain AMT0068-40, M abscessus/massiliense complex
  MIC: 1 µg/mL (≈ 1.34 µM)
M. abscessus (MABSC); strain AMT0119-7, M abscessus/massiliense complex
  MIC: 1 µg/mL (≈ 1.34 µM)

## CCC[C@@H]1C[C@@H](C(=O)N[C@@H]([C@H]2O[C@H](SC)[C@H](O)[C@@H](O)[C@H]2O)[C@H](C)Cl)N(C)C1 [Clindamycin]
C. difficile; ATCC700057, C. difficile MMX 4381 (ATCC 700057), QC, CCI
  MIC: 4 µg/mL (≈ 9.41 µM)
C. difficile; C. difficile MMX 8272, ribotype 255, CCI
  MIC: 4 µg/mL (≈ 9.41 µM)
C. difficile; C. difficile MMX 8279, ribotype 005, CCR
  MIC: > 64 µg/mL
C. difficile; C. difficile MMX 8281, ribotype 010, CCR
  MIC: > 64 µg/mL
C. difficile; NCTC13307, C. difficile MMX 5681 (NCTC 13307), ribotype 012, CCR
  MIC: > 64 µg/mL
C. difficile; NCTC13336, C. difficile MMX 5680 (NCTC 13336), ribotype 027, CCI METR
  MIC: 4 µg/mL (≈ 9.41 µM)
E. faecium
  MIC: >32 µg/mL
B. fragilis
  MIC: 1 µg/mL (≈ 2.35 µM)

## CC[C@H]1OC(=O)[C@H](C)[C@@H](O[C@H]2C[C@@](C)(OC)[C@@H](O)[C@H](C)O2)[C@H](C)[C@@H](O[C@@H]2O[C@H](C)C[C@H](N(C)C)[C@H]2O)[C@](C)(O)C[C@@H](C)C(=O)[C@H](C)[C@@H](O)[C@]1(C)O [Erythromycin]
S. pneumoniae [1]
  CLSI QC range of MIC: (0.03-0.12) μg/mL
E. faecium
  MIC: >64 µg/mL

## Cc1ncc([N+](=O)[O-])n1CCO [MTZ]
F. magna
  Mean MIC: 0.56 µg/mL
  n (% resistant): 0 (0.0) n (%)
[2]
  Mean MIC: 16.00 µg/mL
  n (% resistant): 3 (100.0) n (%)
[3]
  Mean MIC: 16.00 µg/mL
  n (% resistant): 1 (100.0) n (%)
Peptoniphilus gorbachii
  Mean MIC: 0.50 µg/mL
  n (% resistant): 0 (0.0) n (%)
Clostridium sphenoides
  Mean MIC: 0.32 µg/mL
  n (% resistant): 0 (0.0) n (%)
Actinomyces turicensis
  Mean MIC: 16.00 µg/mL
  n (% resistant): 1 (100.0) n (%)
Anaerococcus murdochii
  Mean MIC: 1.00 µg/mL
  n (% resistant): 0 (0.0) n (%)

## CCN1CCN(C(=O)N[C@@H](C(=O)N[C@@H]2C(=O)N3[C@@H]2SC(C)(C)[C@@H]3C(=O)O)c2ccccc2)C(=O)C1=O.C[C@]1(Cn2ccnn2)[C@H](C(=O)O)N2C(=O)C[C@H]2S1(=O)=O [TZP]
Streptococcus oralis
  Mean MIC: 0.06 µg/mL
  n (% resistant): 0 (0.0) n (%)
[4]
  Mean MIC: 1.00 µg/mL
  n (% resistant): 0 (0.0) n (%)
Corynebacterium jeikeium
  Mean MIC: 1.00 µg/mL
  n (% resistant): 0 (0.0) n (%)
[5]
  Mean MIC: 1.00 µg/mL
  n (% resistant): 0 (0.0) n (%)
[6]
  Mean MIC: 1.00 µg/mL
  n (% resistant): 0 (0.0) n (%)
Dermabacter hominis
  Mean MIC: 0.50 µg/mL
  n (% resistant): 0 (0.0) n (%)
F. magna
  Mean MIC: 0.34 µg/mL
  n (% resistant): 0 (0.0) n (%)
[2]
  Mean MIC: 0.29 µg/mL
  n (% resistant): 0 (0.0) n (%)
[3]
  n (% resistant): 0 (0.0) n (%)
Peptoniphilus gorbachii
  Mean MIC: 0.03 µg/mL
  n (% resistant): 0 (0.0) n (%)
Clostridium sphenoides
  Mean MIC: 16.00 µg/mL
  n (% resistant): 0 (0.0) n (%)
Actinomyces turicensis
  Mean MIC: 1.00 µg/mL
  n (% resistant): 0 (0.0) n (%)
Anaerococcus murdochii
  Mean MIC: 0.50 µg/mL
  n (% resistant): 0 (0.0) n (%)

## Penicillin
S. pneumoniae [1]
  CLSI QC range of MIC: (0.25-1) μg/mL
S. pyogenes; S. pyogenes MMX 3068, EryR
  MIC: ≤0.008 µg/mL
S. pyogenes; S. pyogenes MMX 3820, ERYR CLIR
  MIC: ≤0.008 µg/mL
S. pyogenes; S. pyogenes MMX 3919, ERYR
  MIC: ≤0.008 µg/mL
S. pyogenes; S. pyogenes MMX 3929, ERYR CCR
  MIC: ≤0.008 µg/mL
S. pyogenes; S. pyogenes MMX 5091, ERYR CCR
  MIC: ≤0.008 µg/mL
S. agalactiae; S. agalactiae MMX 3741, ERYR CCR
  MIC: 0.03 µg/mL
S. agalactiae; S. agalactiae MMX 3743, ERYR CCR
  MIC: 0.06 µg/mL
S. agalactiae; S. agalactiae MMX 4077, ERYR CCR
  MIC: 0.06 µg/mL
S. agalactiae; S. agalactiae MMX 4079, ERYR CCR PenR MEMR
  MIC: 2 µg/mL
S. agalactiae; S. agalactiae MMX 4086, ERYR CCR
  MIC: 0.06 µg/mL
S. pneumoniae [7]; S. pneumoniae MMX 880, LevR SXTR CCR EryR PenR
  MIC: 2 µg/mL
S. pneumoniae [7]; S. pneumoniae MMX 937, MemR SXTR CCR EryR PenR
  MIC: 4 µg/mL
S. pneumoniae [7]; S. pneumoniae MMX 3959, CCR EryR
  MIC: 0.12 µg/mL
S. pneumoniae [7]; S. pneumoniae MMX 5440, MemR SXTR CCR EryR PenR
  MIC: 4 µg/mL
S. pneumoniae [7]; S. pneumoniae MMX 5445, MemR SXTR CCR EryR PenR
  MIC: 4 µg/mL
S. pneumoniae [7]; S. pneumoniae MMX 6837 (ATCC 49619), QC
  MIC: 0.25 µg/mL
S. pneumoniae [7]; S. pneumoniae MMX 8133, MemR SXTR CCR EryR PenR
  MIC: 4 µg/mL
